In patent US20130317069A1, “2,4-(SUBSTITUTED AROMATIC)-1,3-OXAZOLINE COMPOUNDS AS A SEED TREATMENT TO CONTROL PESTS” (Dow Agrosciences LLC, priority 2012, published 2013):

Legend:
[1] = tested on: Myzus persicae (green peach aphid); assay: Insecticidal activity on green peach aphid, spray on infested cabbage leaves; format: in vivo; settings: 72 h, Rate 50 PPM spray on infested cabbage leaves until runoff, graded after 3 days at 26° C., count compared with untreated check
Protocol: (§1) Different 2,4-(substituted aromatic)-1,3-oxazoline compounds were tested for insecticidal activity on Spodoptera exigua (beet armyworm) and Myzus persicae (green peach aphid).
The different 2,4-(substituted aromatic)-1,3-oxazoline compounds used on Myzus persicae were formulated as test spray solutions. To prepare the test spray solutions, 1 mg of each of the different 2,4-(substituted aromatic)-1,3-oxazoline compounds was dissolved into 1 mL of a 90:10 acetone:ethanol solvent. The resulting solution was added to 19 mL of water containing 0.05% Tween surfactant to produce different 50 PPM spray solutions. Cabbage leaves were […] with green peach aphid (all life stages) 16-20 hours prior to application of the different spray solutions. The different spray solutions were sprayed on both sides of each infested cabbage leaf with a sweeping action until runoff. The cabbage leaves were allowed to dry and were held for 3 days in a controlled room at 26° C. and 40% RH, after which time the test was graded. Grading was by actual count using a dissecting microscope and comparison of test counts to an untreated check. The average % mortality was then determined. In Table 1, “NT” means insecticidal activity was not tested for the 2,4-(substituted aromatic)-1,3-oxazoline compound at this rate.

[2] = tested on: Spodoptera exigua (beet armyworm); assay: Insecticidal activity on beet armyworm, treated lepidopteran diet; format: in vivo; settings: 120 h, Rate 400 PPM, 250 μL test solution on diet surface, second-instar larvae, 5 days at 25° C., five insects per treatment
Protocol: as §1
The different 2,4-(substituted aromatic)-1,3-oxazoline compounds used on Spodoptera exigua were formulated as test solutions. To prepare the test solutions, the different 2,4-(substituted aromatic)-1,3-oxazoline compounds were formulated at 400 PPM in 7.5 mL of 2:1 acetone:tap water solvent. 250 μL of each test solution was pipetted upon the surface of 8 mL of lepidopteran diet (modified Shorey) contained in each of five one-ounce plastic cups (one cup=1 replication). A second-instar beet armyworm was placed upon the treated diet in each cup once the solvent had air-dried. The cups containing the treated lepidopteran diet and the beet armyworms were capped and then held in a growth chamber at 25° C., 50-55% RH, and 14 hours light:10 hours dark for 5 days. The average % mortality was determined from the number of dead insects of five per treatments.

SMILES	mortality at 50 ppm [1] [%]	mortality at 400 ppm [2] [%]
C[C@@H]1OC(c2c(F)cccc2F)=N[C@@H]1c1ccc(-c2ccc(C(F)(F)F)cc2)cc1 (stereo in doubt) [(III)]	32	100
Cc1ccc(-c2ccc([C@@H]3N=C(c4c(F)cccc4F)O[C@H]3C)cc2)cc1C (stereo in doubt) [(IX)]	0	60
Cc1ccccc1C1=N[C@@H](c2ccc(-c3ccc(C(F)(F)F)cc3)cc2)[C@@H](C)O1 (stereo in doubt) [(X)]	88	100
Cc1ccccc1C1=N[C@@H](c2ccc(-c3ccc(OC(F)(F)F)cc3)cc2)[C@@H](C)O1 (stereo in doubt) [(XI)]	71	100
C[C@@H]1OC(c2c(F)cccc2Cl)=N[C@@H]1c1ccc(-c2ccc(OC(F)(F)F)cc2)cc1 (stereo in doubt) [(XII)]	86	100
CCOc1ccc(-c2ccc([C@H]3N=C(c4c(F)cccc4Cl)O[C@H]3C)cc2)cc1 (stereo in doubt) [(XIII)]	82	100
C[C@H]1OC(c2c(F)cccc2F)=N[C@H]1c1ccc(-c2ccc(OC(F)(F)F)cc2)cc1 (stereo in doubt) [(XVI)]	95	100
FC(F)(F)c1ccc(-c2ccc(C3COC(c4c(Cl)cncc4Cl)=N3)cc2)c(Cl)c1 (centres unmarked) [(I)]	18	100
Fc1cncc(F)c1C1=NC(c2ccc(-c3ccc(C(F)(F)F)cc3)cc2)CO1 (centres unmarked) [(II)]	–	80
Clc1cncc(Cl)c1C1=NC(c2ccc(-c3ccccc3)cc2)CO1 (centres unmarked) [(IV)]	–	80
Fc1ccc(C(F)(F)F)cc1-c1ccc(C2COC(c3c(Cl)cncc3Cl)=N2)cc1 (centres unmarked) [(V)]	–	60
Cc1cc(-c2ccc(C(F)(F)F)cc2)ccc1C1COC(c2c(Cl)cncc2Cl)=N1 (centres unmarked) [(VI)]	20	100
CCOc1ccc(-c2ccc(C3COC(c4c(Cl)cncc4Cl)=N3)c(C)c2)cc1 (centres unmarked) [(VII)]	82	100
Cc1cc(-c2ccc(OC(F)(F)F)cc2)ccc1C1COC(c2c(F)cccc2Cl)=N1 (centres unmarked) [(VIII)]	66	100
CCOc1ccc(-c2ccc(C3N=C(c4c(F)cccc4F)OC3(C)C)cc2)cc1 (centres unmarked) [(XIV)]	40	60
FC(F)(F)c1ccc(-c2ccc(C3COC(c4c(Cl)cncc4Cl)=N3)cc2)cc1 (centres unmarked) [(XV)]	75	100
